Assay results from US11413278B2, “Compounds and methods for promoting stress resistance” (priority 2015, dated 2022).
Entries after “also recorded” stand apart in the source; their conditions may differ. Where two headings read alike, the source gives them in different places.

What was measured:
human PARP1 = biological target: T1, human PARP1 (Homo sapiens, UniProt P09874); assay: PARP inhibitor assay (HT Fluorescent Homogeneous PARP Inhibition Assay Kit); type: biochemical; conditions: for Inhibition of PARP1: 10 μM, in vitro; for L = PARP inhibition: score
T1 construct: purchased Trevigen
In short: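 Human PARP1 with NAD and activated DNA, compounds at 10 μM final, 30 min at room temperature in dark. Resazurin/diaphorase cycling mix then added for 1 hr in dark before stop buffer; fluorescent homogeneous kit read-out.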

WI-38 cells [1] = assay: MMS resistance assay; type: cell-based, human; conditions: for fold induction at 10 µM: Homo sapiens, 12 h, normalized ATP measurement; for Assay 3: MMS-resistant / Assay 5: Triple resistant: YES/NO; for Assay 3: MMS-resistant: * indicates partial; for Assay 5: Triple resistant: H2O2, cadmium and MMS; for Triple resistant: H2O2, CdCl2 and MMS
In short: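 WI-38 cells were given compounds at five final concentrations (0.25–20 μM) in triplicate, followed by cadmium or MMS for 12 h. For MMS, medium was switched from OptiMEM+10% FBS to serum-free DMEM+2% BSA when compounds were added, 24 h before stressor. Two independent assays were run, analysed by global variance t-test.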

[2] = system: PC12 cells expressing poly(Q)103-Htt-EGFP; assay: Poly(Q) toxicity & viability analysis (cellular model of Huntington's disease); type: cell-based, rat; conditions: for M = Huntington's poly-Q toxicity attenuation: score; for K = Huntington's poly-Q toxicity attenuation: summary score
In short: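 PC12 cells stably carrying inducible poly(Q)103-Htt-EGFP, whose induced expression causes aggregation and toxicity. Viability read 48 hrs later as ATP content by CellTiter-Glo.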

C. elegans = C. elegans lifespan assays (liquid and plate); type: in vivo, Caenorhabditis elegans; conditions: for ILS at 60 µM / ILS at 66 µM: Caenorhabditis elegans; for O = Life span- extending scores in worms: score scale 0 to 2, 4 to 6 independent trials; for M = Lifespan-extending scores in worms: summary score
[3] = system: phosphorylated γH2A.X and TP53BP1; assay: DNA damage marker analysis (immuno-staining); conditions: for activity at 10 µM: Homo sapiens, WI-38, 24 h
In short: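 WI-38 cells were cultured 24 h, then treated with compounds for 24 h; H2O2 (700 μM, 3 h) and doxorubicin (300 nM, 24 h) served as DNA-damage controls. After fixation, cells were immunostained for phospho-γH2A.X (Ser-139) and phospho-TP53BP1 (Ser-1778), counterstained with DAPI, and imaged by automated high-content microscopy.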

WI-38 cells [4] = conditions: for No H2O2 stress treatment, at 10 uM (fold change): normalized ATP measurement; for Assay 1: H2O2-resistant: YES/NO, if NO, possibly due to repeated freezing/thawing of stocks
[5] = Exp. 1, WI-38 cells, read-out: Exp. 1, under MMS stress treatment, at 10 uM (fold change)
[6] = Exp. 2, WI-38 cells, read-out: Exp. 2, under MMS stress treatment, at 10 uM (fold change)
[7] = score in summary of 38 core set hits
[8] = in liquid, wild type, with FuDR, 1.0 × 10^9 bacteria/ml, read-out: relative change of mean lifespan vs control, Trial 1
[9] = in liquid, wild type, with FuDR, 2.5 × 10^9 bacteria/ml, read-out: relative change of mean lifespan vs control, Trial 2
[10] = on plate, CF512 temperature-sensitive sterile animals, without FuDR, 2.0 × 10^10 bacteria/ml, read-out: relative change of mean lifespan vs control, Trial 3
[11] = Assay 2(z), 1.0 × 10^9 bacteria/ml, wild type + FuDR (2012 July), read-out: Lifespan assay in liquid
[12] = Assay 3(aa), 2.5 × 10^9 bacteria/ml, wild type + FuDR, read-out: Lifespan assay in liquid
[13] = Assay 4(ab), 2.0 × 10^10 bacteria/ml, CF512 worms, no FuDR, read-out: Lifespan assay on plates
[14] = read-out: Experiment 1, H2A.X-P DNA damage foci staining (no H2O2 stress treatment), at 10 uM
[15] = read-out: Experiment 2, H2A.X-P DNA damage foci staining (no H2O2 stress treatment), at 10 uM
[16] = read-out: Experiment 2, H2A.X-P DNA damage foci staining (under H2O2 stress treatment), at 10 uM
[17] = read-out: Experiment 2, TP53BP1-P DNA damage foci staining (no H2O2 stress treatment), at 10 uM
[18] = read-out: Experiment 2, TP53BP1-P DNA damage foci staining (under H2O2 stress treatment), at 10 uM
[19] = WI-38 cells, 10 μM, (*) = compromised ability to protect cells from H2O2, could be due to stability issue
[20] = asterisks indicate the loss of the ability to protect cells from H2O2 over time
[21] = derived from dose response curves, 0.6-20 uM, H2O2-resistance of WI-38 cells
[22] = read-out: Est. ED50, dose response 0.6-20 μM, H2O2-resistance

T1 sequence (P09874 whole entry): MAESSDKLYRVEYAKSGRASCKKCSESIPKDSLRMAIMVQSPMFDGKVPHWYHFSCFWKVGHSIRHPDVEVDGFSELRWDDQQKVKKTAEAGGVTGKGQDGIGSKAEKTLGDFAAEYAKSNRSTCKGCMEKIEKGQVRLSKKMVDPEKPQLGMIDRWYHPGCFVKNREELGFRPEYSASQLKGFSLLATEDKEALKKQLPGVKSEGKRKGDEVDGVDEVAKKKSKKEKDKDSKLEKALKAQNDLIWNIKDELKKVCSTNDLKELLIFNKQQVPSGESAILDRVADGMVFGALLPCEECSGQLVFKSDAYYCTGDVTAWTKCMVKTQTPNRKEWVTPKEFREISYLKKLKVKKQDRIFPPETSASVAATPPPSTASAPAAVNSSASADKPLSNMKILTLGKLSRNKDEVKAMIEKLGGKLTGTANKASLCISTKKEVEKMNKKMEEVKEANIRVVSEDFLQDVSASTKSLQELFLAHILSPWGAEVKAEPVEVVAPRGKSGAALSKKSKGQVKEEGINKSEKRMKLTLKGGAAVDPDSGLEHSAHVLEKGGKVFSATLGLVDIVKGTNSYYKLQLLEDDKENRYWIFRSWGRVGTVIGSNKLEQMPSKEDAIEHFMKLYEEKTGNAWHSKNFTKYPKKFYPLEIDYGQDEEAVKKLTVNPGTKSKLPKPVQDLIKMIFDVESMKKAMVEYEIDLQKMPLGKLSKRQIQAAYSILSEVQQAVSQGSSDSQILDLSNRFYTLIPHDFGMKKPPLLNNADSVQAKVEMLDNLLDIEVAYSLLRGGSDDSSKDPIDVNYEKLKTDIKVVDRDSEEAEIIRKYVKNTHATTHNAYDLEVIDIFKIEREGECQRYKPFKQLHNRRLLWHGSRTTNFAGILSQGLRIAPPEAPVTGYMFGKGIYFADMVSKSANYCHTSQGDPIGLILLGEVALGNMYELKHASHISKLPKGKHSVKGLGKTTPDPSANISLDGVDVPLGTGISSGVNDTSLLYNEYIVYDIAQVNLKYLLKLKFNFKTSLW

| SMILES | L = PARP inhibition (human PARP1) | fold induction at 10 µM (WI-38 cells [1]; [5]) | fold induction at 10 µM (WI-38 cells [1]; [6]) | B = MMS resistant (WI-38 cells [1]; [7]) | B = MMS resistant (WI-38 cells [1]; summary score) | D = Triple resistant (WI-38 cells [1]; summary score) | M = Huntington's poly-Q toxicity attenuation [2] | K = Huntington's poly-Q toxicity attenuation [2] | ILS at 60 µM (C. elegans; [8]) | ILS at 60 µM (C. elegans; [9]) | ILS at 60 µM (C. elegans; [10]) | ILS at 66 µM (C. elegans; [11]) | ILS at 66 µM (C. elegans; [12]) | ILS at 66 µM (C. elegans; [13]) | O = Life span- extending scores in worms (C. elegans) | M = Lifespan-extending scores in worms (C. elegans) | activity at 10 µM [3, 14] | activity at 10 µM [3, 15] | activity at 10 µM [3, 16] | activity at 10 µM [3, 17] | further results |
| --- | --- | --- | --- | --- | --- | --- | --- | --- | --- | --- | --- | --- | --- | --- | --- | --- | --- | --- | --- | --- | --- |
| Oc1ncnc2sc3c(c12)CCC3 [O14] | 1 | 0.84 | 3.45 | 0 | 1 | 2 | 0 | 0 | 13.7% | 5.8% | 11.3% | 13.7% | 5.8% | 11.3% | 2 (2 for observed in more than 2 trials) | 2 (2 for observed in more than 2 trials) | 116% | 85.3% | 221% | 159% | Inhibition of PARP1 (human PARP1): inhibitors of PARP1; also recorded: identified PARP inhibitor; Assay 3: MMS-resistant (WI-38 cells [1]): YES; Assay 5: Triple resistant (WI-38 cells [1]): YES; Lifespan extension of C. elegans (C. elegans; across independent trials): ≥ 10%; Extension of C. elegans' lifespan (qualitative) (C. elegans; in at least 3 to 4 trials, group range ~10% to ~50%): could extend animal's lifespan; Trials with lifespan extension (C. elegans; positive of total trials): 3 of 3; activity at 10 µM [3, 18]: 254%; P = Potential DNA-damaging ([3]; human, 24 h): 0; R = Potential DNA damaging ([3]; human, 24 h): 0; H2O2-resistant (WI-38 cells [4]; [19]): YES; No H2O2 stress treatment, at 10 uM (fold change) (WI-38 cells [4]; WI-38 cells): 1.11 fold change; Assay 1: H2O2-resistant (WI-38 cells [4]): YES; H2O2-resistant (WI-38 cells [4]; [20]): YES; EC50 (WI-38 cells [4]; [21]): 12.5 µM; EC50 (WI-38 cells [4]; [22]): 12.5 µM |
| CC(C)(C)c1ccc(OCC(=O)Nc2ccc3c4c(cccc24)C(=O)NC3=O)cc1 [O22] | 1 | 3.22 | 14.8 | 1 | 1 | 2 | 0 | 0 | -24.5% | -2.3% | -52.8% | -24.5% | -2.3% | -52.8% | 0 | 0 | 101% | 121% | 210% | 154% | Inhibition of PARP1 (human PARP1): confirmed as PARP inhibitors; also recorded: inhibitors of PARP1; MMS-resistant (WI-38 cells [1]): YES; Multiplex resistance to cadmium, MMS and H2O2 (WI-38 cells [1]; 0.25 μM to 20 μM, repurchased molecules): reproducibly conferred multiplex resistance; Triple resistant (WI-38 cells [1]): YES; MMS-resistant (WI-38 cells [1]; WI-38 cells, 10 μM): YES; Triple resistant (WI-38 cells [1]; WI-38 cells, 10 μM): YES; Assay 3: MMS-resistant (WI-38 cells [1]): YES; Assay 5: Triple resistant (WI-38 cells [1]): YES; activity at 10 µM [3, 18]: 510%; P = Potential DNA-damaging ([3]; human, 24 h): 0; R = Potential DNA damaging ([3]; human, 24 h): 0; H2O2-resistant (WI-38 cells [4]; [19]): YES; No H2O2 stress treatment, at 10 uM (fold change) (WI-38 cells [4]; WI-38 cells): 0.96 fold change; Assay 1: H2O2-resistant (WI-38 cells [4]): YES; H2O2-resistant (WI-38 cells [4]; [20]): YES; EC50 (WI-38 cells [4]; [22]): 20 µM |
| O=C1NCCCc2cc(Cl)sc21 [O1] | 1 | 1.2 | 4.96 | 0 | 0 | 0 | 0 | 0 | 1.8% | -1.7% | 22.1% | 1.8% | -1.7% | 22.1% | 0 | 0 | 102% | 104% | 216% | 143% | Inhibition of PARP1 (human PARP1): inhibitors of PARP1; ILS at 60 µM (C. elegans; on plate, CF512 temperature-sensitive sterile animals, without FuDR, 1.0 × 10^11 bacteria/ml, read-out: relative change of mean lifespan vs control, Trial 4): -2.2%; ILS at 66 µM (C. elegans; Assay 5(ac), 1.0 × 10^11 bacteria/ml, CF512 worms, no FuDR, read-out: Lifespan assay on plates): -2.2%; activity at 10 µM [3, 18]: 336%; P = Potential DNA-damaging ([3]; human, 24 h): 0; R = Potential DNA damaging ([3]; human, 24 h): 0; H2O2-resistant (WI-38 cells [4]; [19]): YES; No H2O2 stress treatment, at 10 uM (fold change) (WI-38 cells [4]; WI-38 cells): 0.92 fold change; Assay 1: H2O2-resistant (WI-38 cells [4]): YES; H2O2-resistant (WI-38 cells [4]; [20]): YES; EC50 (WI-38 cells [4]; [21]): 13.2 µM; EC50 (WI-38 cells [4]; [22]): 13.2 µM |
| Cc1ccc(NC(=O)c2ccc([N+](=O)[O-])o2)cc1C [Gr-1F] | 0 | 0.74 | 2.07 | 0 | 1 | 2 | 0 | 0 | 22.3% | 0.6% | 11.3% | 22.3% | 0.6% | 11.3% | 1 (1 for lifespan extension observed in 2 trials) | 1 (1 for lifespan extension observed in 2 trials) | 219% | 378% | 127% | 460% | Assay 3: MMS-resistant (WI-38 cells [1]): YES; Assay 5: Triple resistant (WI-38 cells [1]): YES; activity at 10 µM [3, 18]: 558%; P = Potential DNA-damaging ([3]; human, 24 h): 1; R = Potential DNA damaging ([3]; human, 24 h): 1; H2O2-resistant (WI-38 cells [4]; [19]): YES; No H2O2 stress treatment, at 10 uM (fold change) (WI-38 cells [4]; WI-38 cells): 0.60 fold change; Assay 1: H2O2-resistant (WI-38 cells [4]): YES; H2O2-resistant (WI-38 cells [4]; [20]): YES; EC50 (WI-38 cells [4]; [21]): 14.8 µM; EC50 (WI-38 cells [4]; [22]): 2.88 µM |
| COc1ccc(C(=O)/C=C/c2cccc(Cl)c2)c(OC)c1 [Gr-4C] | 0 | 1.24 | 1.61 | 0 | 1 | 2 | 0 | 0 | -14.9% | 3.1% | -1.7% | -14.9% | 3.1% | -1.7% | 0 | 0 | 108% | 135% | 150% | 179% | Assay 3: MMS-resistant (WI-38 cells [1]): YES; Assay 5: Triple resistant (WI-38 cells [1]): YES; activity at 10 µM [3, 18]: 444%; R = Potential DNA damaging ([3]; negative point, cultured human cells): 0; P = Potential DNA-damaging ([3]; summary score): 0; H2O2-resistant (WI-38 cells [4]; [19]): YES; No H2O2 stress treatment, at 10 uM (fold change) (WI-38 cells [4]; WI-38 cells): 1.08 fold change; Assay 1: H2O2-resistant (WI-38 cells [4]): YES; H2O2-resistant (WI-38 cells [4]; [20]): YES; EC50 (WI-38 cells [4]; [21]): 8.4 µM; EC50 (WI-38 cells [4]; [22]): 6.45 µM |
